Measurements taken from ChEMBL document CHEMBL1151062, “Synthesis and biological activity of 3-alkyl- and 3-alkenyl-3-dephenyldocetaxels” (Bioorg Med Chem Lett, 1994).

Legend:
A549 = assay: Cytotoxicity against human A549 non small cell lung cell lines; type: functional, cell-based
MCF7 [1] = assay: Cytotoxicity against human breast MCF-7 cancer cell lines; type: functional, cell-based
A121 = assay: Cytotoxicity against human A121 ovarian cells; type: functional, cell-based
HT-29 = assay: Cytotoxicity against human colon HT-29 cell lines; type: functional, cell-based
MCF7 [2] = assay: Cytotoxicity against adriamycin resistant human breast MCF-7 cancer cell lines; type: functional, cell-based
P388 [3] = assay: In vitro cytotoxicity against murine P388 cell lines; type: functional, cell-based; settings: Mus musculus
P388 [4] = assay: Microtubule disassembly inhibitory activity against murine P388 cell line relative to the activity of paclitaxel; type: functional, Mus musculus
P388 [5] = assay: In vitro cytotoxicity against doxorubicin resistant P388 cell lines; type: functional, cell-based; settings: Mus musculus
Mus musculus [6] = organism: Mus musculus; assay: Time for median tumor to reach 1000 mg was determined against B16 melanoma cell lines at a concentration of 0.4 mL per mouse on days 5,7,9 in B6D2F1 mice; type: functional
Mus musculus [7] = organism: Mus musculus; assay: Cell kill against B16 melanoma cell lines at a concentration of 0.4 mL per mouse on days 5,7,9 in B6D2F1 mice; type: functional
Mus musculus [8] = assay: In vivo antitumor activity administered iv, at a concentration of 20 mg/kg/day per mouse was determined against B16 melanoma cell lines on days 5,7,9 in B6D2F1 mice; type: functional
Mus musculus [9] = assay: In vivo antitumor activity administered iv, at a concentration of 12.4 mg/kg/day per mouse was determined against B16 melanoma cell lines on days 5,7,9 in B6D2F1 mice; type: functional

SMILES: C/C=C/[C@H](NC(=O)OC(C)(C)C)[C@@H](O)C(=O)O[C@H]1C[C@@]2(O)[C@@H](OC(=O)c3ccccc3)C3[C@](C)(C(=O)[C@H](OC(C)=O)C(=C1C)C2(C)C)[C@@H](O)C[C@H]1OC[C@@]31OC(C)=O (stereo partly specified)
- IC50 (A549): 0.54 nM
- IC50 (MCF7 [1]): 0.51 nM
- IC50 (A121): 0.9 nM
- IC50 (HT-29): 0.76 nM
- IC50 (MCF7 [2]): 14 nM

SMILES: CC(=O)O[C@H]1C(=O)[C@@]2(C)C([C@H](OC(=O)c3ccccc3)[C@]3(O)C[C@H](OC(=O)[C@H](O)[C@H](CC(C)C)NC(=O)OC(C)(C)C)C(C)=C1C3(C)C)[C@]1(OC(C)=O)CO[C@@H]1C[C@@H]2O (stereo partly specified)
- IC50 (A549): 0.98 nM
- IC50 (MCF7 [1]): 4 nM
- IC50 (A121): 3.8 nM
- IC50 (HT-29): 3.2 nM
- IC50 (MCF7 [2]): 36 nM

SMILES: CC(=O)O[C@@]12CO[C@@H]1C[C@H](O)[C@@]1(C)C(=O)[C@H](O)C3=C(C)[C@@H](OC(=O)[C@H](O)[C@H](/C=C/c4ccccc4)NC(=O)OC(C)(C)C)C[C@@](O)([C@@H](OC(=O)c4ccccc4)C12)C3(C)C (stereo partly specified)
- IC50 (P388 [3]): 264 nM
- Ratio (P388 [4]): 1.45
- IC50 (P388 [5]): 7490 nM

SMILES: CC(=O)O[C@@]12CO[C@@H]1C[C@H](O)[C@@]1(C)C(=O)[C@H](O)C3=C(C)[C@@H](OC(=O)[C@H](O)[C@H](CC(C)C)NC(=O)OC(C)(C)C)C[C@@](O)([C@@H](OC(=O)c4ccccc4)C12)C3(C)C (stereo partly specified)
- Median tumor (Mus musculus [6]): 26.03 days
- IC50 (A549): 0.7 nM
- IC50 (MCF7 [1]): 0.55 nM
- IC50 (P388 [3]): 12.2 nM
- Log cell kill (Mus musculus [7]): 1.97
- Ratio (P388 [4]): 0.78
- IC50 (A121): 1.9 nM
- IC50 (P388 [5]): 1590 nM
- IC50 (HT-29): 0.63 nM
- IC50 (MCF7 [2]): 12 nM
- T/C (Mus musculus [8]): 5%

SMILES: CC(=O)O[C@@]12CO[C@@H]1C[C@H](O)[C@@]1(C)C(=O)[C@H](O)C3=C(C)[C@@H](OC(=O)[C@H](O)[C@H](CC(C)(C)C)NC(=O)OC(C)(C)C)C[C@@](O)([C@@H](OC(=O)c4ccccc4)C12)C3(C)C (stereo partly specified)
- IC50 (P388 [3]): 125 nM
- Ratio (P388 [4]): 1.45
- IC50 (P388 [5]): 6880 nM

SMILES: CC(=O)O[C@@]12CO[C@@H]1C[C@H](O)[C@@]1(C)C(=O)[C@H](O)C3=C(C)[C@@H](OC(=O)[C@H](O)[C@H](C=C(C)C)NC(=O)OC(C)(C)C)C[C@@](O)([C@@H](OC(=O)c4ccccc4)C12)C3(C)C (stereo partly specified)
- Median tumor (Mus musculus [6]): 27.54 days
- IC50 (P388 [3]): 12.8 nM
- Log cell kill (Mus musculus [7]): 2.25
- T/C (Mus musculus [9]): 8%
- Ratio (P388 [4]): 0.64
- IC50 (P388 [5]): 2360 nM

SMILES: CC(=O)O[C@H]1C(=O)[C@@]2(C)C([C@H](OC(=O)c3ccccc3)[C@]3(O)C[C@H](OC(=O)[C@H](O)[C@H](C=C(C)C)NC(=O)c4ccccc4)C(C)=C1C3(C)C)[C@]1(OC(C)=O)CO[C@@H]1C[C@@H]2O (stereo partly specified)
- IC50 (A549): 0.45 nM
- IC50 (MCF7 [1]): 0.54 nM
- IC50 (A121): 1.4 nM
- IC50 (HT-29): 0.96 nM
- IC50 (MCF7 [2]): 113 nM

SMILES: CC(=O)O[C@@]12CO[C@@H]1C[C@H](O)[C@@]1(C)C(=O)[C@H](O)C3=C(C)[C@@H](OC(=O)[C@H](O)[C@@H](NC(=O)OC(C)(C)C)c4ccccc4)C[C@@](O)([C@@H](OC(=O)c4ccccc4)[C@H]21)C3(C)C.O.O.O [DOCETAXEL]
- IC50 (P388 [3]): 9.9 nM
- Ratio (P388 [4]): 0.7
- IC50 (P388 [5]): 1860 nM
